Laboratory results reported in patent US20240269139A1, “COMPOUNDS FOR TARGETED PROTEIN DEGRADATION OF KINASES” (DANA-FARBER CANCER INSTITUTE, INC., priority 2020, published 2024).
Like-named read-outs stand apart in the source and are kept apart here.

Tests used:
[1] = target: protein kinases (human kinome) (Homo sapiens, UniProt Q16877); format: cell-based; details: PFKFB4 (Q16877); experiment wp071
[2] = test system: protein kinases (human kinome); format: cell-based
[3] = target: T1, protein kinases (human kinome) (Homo sapiens, UniProt P52789); format: cell-based; details: HK2 (P52789); experiment wp076
T1 sequence (P52789 1-917): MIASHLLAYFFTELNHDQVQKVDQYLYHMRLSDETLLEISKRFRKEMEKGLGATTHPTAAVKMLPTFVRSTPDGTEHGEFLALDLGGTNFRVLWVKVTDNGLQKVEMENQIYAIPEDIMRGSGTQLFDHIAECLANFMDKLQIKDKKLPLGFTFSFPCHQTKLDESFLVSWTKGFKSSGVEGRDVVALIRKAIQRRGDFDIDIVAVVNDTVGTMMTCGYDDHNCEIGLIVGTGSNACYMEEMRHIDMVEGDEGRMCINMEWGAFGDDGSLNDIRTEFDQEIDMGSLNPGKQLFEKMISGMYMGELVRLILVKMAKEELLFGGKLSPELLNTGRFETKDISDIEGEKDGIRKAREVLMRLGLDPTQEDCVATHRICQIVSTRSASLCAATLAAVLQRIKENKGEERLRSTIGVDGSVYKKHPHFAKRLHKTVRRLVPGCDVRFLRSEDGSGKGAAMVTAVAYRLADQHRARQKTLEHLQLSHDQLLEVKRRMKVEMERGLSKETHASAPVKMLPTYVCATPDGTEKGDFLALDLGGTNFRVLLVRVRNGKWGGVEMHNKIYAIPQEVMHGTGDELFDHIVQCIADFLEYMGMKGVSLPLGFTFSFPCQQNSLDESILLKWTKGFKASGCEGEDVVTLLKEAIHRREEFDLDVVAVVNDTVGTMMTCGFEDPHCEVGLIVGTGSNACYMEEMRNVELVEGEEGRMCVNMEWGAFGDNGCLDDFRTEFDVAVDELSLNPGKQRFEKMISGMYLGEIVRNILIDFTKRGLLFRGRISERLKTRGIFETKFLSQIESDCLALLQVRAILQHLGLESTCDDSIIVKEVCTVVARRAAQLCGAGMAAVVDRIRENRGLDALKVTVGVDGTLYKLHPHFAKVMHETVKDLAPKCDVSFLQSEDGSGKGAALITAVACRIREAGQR

[4] = target: protein kinases (human kinome) (Homo sapiens, UniProt Q14289); format: cell-based
[5] = target: T2, protein kinases (human kinome) (Homo sapiens, UniProt O14965); format: cell-based; details: experiment wp076
T2 sequence (O14965 1-403): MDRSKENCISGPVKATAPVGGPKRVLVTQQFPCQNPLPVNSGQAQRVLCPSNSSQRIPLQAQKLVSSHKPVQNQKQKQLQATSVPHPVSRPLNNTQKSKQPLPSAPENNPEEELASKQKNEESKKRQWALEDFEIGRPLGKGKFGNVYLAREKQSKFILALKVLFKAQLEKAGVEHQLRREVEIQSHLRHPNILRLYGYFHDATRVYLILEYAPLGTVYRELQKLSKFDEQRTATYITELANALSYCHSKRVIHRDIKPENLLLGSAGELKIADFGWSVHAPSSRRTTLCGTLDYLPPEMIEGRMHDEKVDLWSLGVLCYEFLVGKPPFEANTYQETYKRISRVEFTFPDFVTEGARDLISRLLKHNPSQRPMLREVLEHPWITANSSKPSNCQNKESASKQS

[6] = target: T3, protein kinases (human kinome) (Homo sapiens, UniProt O60285); format: cell-based; details: NUAK1 (O60285), experiment wp076
T3 sequence (O60285 1-661): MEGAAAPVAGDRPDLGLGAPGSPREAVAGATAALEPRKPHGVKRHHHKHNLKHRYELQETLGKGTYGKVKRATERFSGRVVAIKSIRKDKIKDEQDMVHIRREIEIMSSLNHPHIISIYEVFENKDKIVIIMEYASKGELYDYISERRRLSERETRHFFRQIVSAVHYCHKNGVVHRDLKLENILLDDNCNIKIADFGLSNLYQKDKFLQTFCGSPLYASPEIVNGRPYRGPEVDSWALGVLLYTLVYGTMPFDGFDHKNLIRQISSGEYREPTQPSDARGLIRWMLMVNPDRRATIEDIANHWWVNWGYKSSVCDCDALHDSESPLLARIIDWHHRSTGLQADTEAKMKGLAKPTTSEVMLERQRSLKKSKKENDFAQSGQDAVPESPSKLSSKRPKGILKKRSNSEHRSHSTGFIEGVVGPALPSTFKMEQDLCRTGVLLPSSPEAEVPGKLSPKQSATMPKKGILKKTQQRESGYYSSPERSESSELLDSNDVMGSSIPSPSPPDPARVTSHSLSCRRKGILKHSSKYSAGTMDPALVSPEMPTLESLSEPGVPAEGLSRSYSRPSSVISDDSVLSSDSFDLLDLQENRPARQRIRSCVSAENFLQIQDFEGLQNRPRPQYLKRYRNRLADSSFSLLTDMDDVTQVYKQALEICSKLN

[7] = target: protein kinases (human kinome) (Homo sapiens, UniProt P30291); format: cell-based; details: experiment wp076
[8] = target: protein kinases (human kinome) (Homo sapiens, UniProt P51812); format: cell-based; details: RPS6KA3 (P51812), experiment wp076
[9] = target: protein kinases (human kinome) (Homo sapiens, UniProt Q9BYT3); format: cell-based; details: STK33 (Q9BYT3-1), experiment wp076
[10] = target: protein kinases (human kinome) (Homo sapiens, UniProt P49759); format: cell-based
[11] = target: T4, CRBN-degrader-kinase ternary complexes (Homo sapiens, UniProt Q96SW2); test: FLAG-CRBN affinity purification TMT LC-MS3 (AP-MS) of degrader-mediated ternary complexes; format: cell-based, H. sapiens; details: HEK293T, 1 μM, 5 h, proteasome inhibitor
T4 construct: host or cells: HEK293T
From the text: An important aspect of protein degraders is the multifaceted nature of the molecule that enables heightened target selectivity due to differences in complementarity of target-ligase interactions, which is not a consideration when assessing selectivity of inhibitors for target engagement (Famaby el al., Nat Chem Biol 15:672-680 (2019)). For compound-induced degradation to be successful, productive ternary complex formation (ligase-degrader-POI) is necessary for proximity-mediated ubiquitin transfer onto the POI. […] Cellular affinity purification was performed, followed by mass spectrometry (AP-MS) of FLAG-tagged CRBN transiently overexpressed in HEK293T cells. FLAG-CRBN expressing cells were co-treated with proteosome inhibitor and 1 μM of each degrader for 5 h, and the degree of kinase target enrichment was compared to kinase degradation hits in matched global proteomics analysis experiments (FIG. 3A, FIG. 3C). The proteins identified as complexed with CRBN were enriched for kinases as well as their known binding partners such as Cyclin B (CDK1) and RASSF1 (STK4), consistent with the binding profiles of the assayed degraders. All kinases identified by AP-MS except CSNK1A1 were also detected in the HEK293T whole proteome degrader profiling experiment, allowing us to interrogate trends across 52 unique kinases (FIG. 4A; FIG. 11B). Limitations of this experiment include the potential loss of transient or weakly bound complexes in the enrichment and subsequent wash steps, the inherent noise associated with AP-MS relative to global proteomics analysis (Dunham et al., Proteomics 12:1576-1590 (2012): Yugandhar et al., Comput Struct Biotechnol J 17:805-811 (2019)) and the short time point of the experiment, which precludes detection of degradation events with slow kinetics. Therefore, the relationship between the formation of abundant, stable ternary complexes and rapid degradation was assessed.
HEK293T cells were seeded into 15 cm plates and cells were transiently transfected with 8 μg of pNTM-FLAG-CRBN construct using lipofectamine 2000. […] Cells were harvested with non-enzymatic CellStripper™ Dissociation reagent (Corning®), followed by three washes with cold PBS and snap freezing. Cell lysis was performed by the addition of IP lysis buffer (50 mM Tris. pH 7.5, 0.5% NP-40, 1 mM EDTA, 10% glycerol and 200 mM NaCl) containing protease inhibitor cocktail (cOmplete™) and relevant co-treatment (above), followed by end-over-end rotation at 4° C. for 3 hours. Lysate was clarified by centrifugation and salt concentration diluted to 100 mM NaCl with the addition of 0 mM NaCl lysis buffer (containing protease inhibitors and 1 μM of relevant compounds to retain temary complexes throughout binding). Lysate was added to 20 μL of pre-washed anti-FLAG M2 magnetic bead slurry (MilliporeSigma) and incubated with end-over-end rotation at 4° C. overnight. Beads were washed six times with 100 mM NaCl lysis buffer containing 1 μM of relevant degraders to retain ternary complexes throughout wash steps.
Proteins were eluted in a two-step elution with the addition of 0.1 M Glycine hydrochloride (MilliporeSigma) and elution buffered to pH 8.5 using 200 mM Tris buffer, pH 8.5. […] Protein pellets were resuspended in 50 μL of EPPs pH 8 and first digested with 2 μg LysC for 12 h at room temperature (RT), followed by 1 μg of trypsin for 6 hours at 37° C.

CRBN = target: T5, CRBN (Homo sapiens, UniProt Q96SW2); test: Competitive displacement assay for cellular CRBN engagement (BRD4BD2-GFP reporter, dBET6); format: cell-based, H. sapiens; details: 5 hours in presence of dBET6
T5 construct: HEK293T cells stably expressing the BRD4BD2-GFP with mCherry reporter; endogenous in cells; host or cells: HEK293T stably expressing BRD4BD2-GFP / mCherry reporter
Procedure: HEK293T cells stably expressing the BRD4BD2-GFP with mCherry reporter were seeded at 30-50% confluency in 384-well plates with 50 μL FluoroBrite™ Dulbecco's Modified Eagle's medium (DMEM) media (Thermo Fisher Scientific. A18967) containing 10% fetal bovine serum (FBS) per well a day before compound treatment. Degrader titrations and 100 nM dBET6 or 250 nM AT1 were dispensed using a D300e Digital Dispenser (HP), normalized to 0.5% DMSO, and incubated with cells for 5 hours. Assay plates were imaged using Acumen® (TTP Labtech), as described above.

[12] = format: cell-based, H. sapiens; details: MOLT-4, 1 μM, 5 h, 5 μM CB-5083

COc1cc(N2CCN(CC(=O)NCCCCCCNc3cccc4c3C(=O)N(C3CCC(=O)NC3=O)C4=O)CC2)ccc1Nc1ncc2c(n1)N(C)c1ccccc1C(=O)N2CC(F)(F)F (centres unmarked) [FMF.04.135.1]
logFC [1]: −0.4969

CNC(=O)c1ccccc1Nc1cc(Nc2ccc(N3CCN(CCCCCCCCNc4cccc5c4C(=O)N(C4CCC(=O)NC4=O)C5=O)CC3)cc2OC)ncc1C(F)(F)F (centres unmarked) [MFH.5.116.1]
logFC RPS6KA1 ([2]; RPS6KA1 (Q15418-2), experiment wp076): −0.5757 | logFC RPS6KA1 (Q15418-2) ([2]; experiment wp076): −0.5757 | logFC [3]: −0.4347 | logFC ([4]; PTK2B (Q14289-1) protein abundance, degrader vs DMSO, down): −2.946 | logFC PTK2B ([4]; PTK2B, accession Q14289-1, experiment wp076, direction of change down): −2.946 | logFC AURKA (O14965) [5]: −0.707 | logFC [6]: −0.7078 | logFC ([6]; direction down): −0.7078 | logFC of WEE1 ([7]; WEE1 P30291-1, degrader vs DMSO): −0.4799 | logFC WEE1 (P30291-1) [7]: −0.4799 | logFC [8]: −0.369 | logFC ([8]; direction down): −0.369 | logFC [9]: −1.382 | logFC ([9]; direction down): −1.382

Cc1ncsc1-c1ccc([C@H](C)NC(=O)[C@@H]2C[C@@H](O)CN2C(=O)[C@@H](NC(=O)CCOCCOCCOCCN2CCC(C(=O)Nc3ncc(SCc4ncc(C(C)(C)C)o4)s3)CC2)C(C)(C)C)cc1 [ZZ.01.31B]
logFC ([2]; CDK9 (P50750-2) protein abundance, degrader vs DMSO, down): −0.837 | logFC CDK9 (P50750-2) ([2]; Experiment wp195): −0.837 | logFC CLK1 ([10]; CLK1 P49759, experiment wp195): −0.3482 | logFC of CLK1 (P49759) ([10]; Experiment wp195): −0.3482

Nc1ncc(-c2ccc(S(=O)(=O)N(CCCNC(=O)CCOCCOCCOCCOCCOCCNc3cccc4c3C(=O)N(C3CCC(=O)NC3=O)C4=O)C3CC3)cc2)cc1-c1ccc2c(c1)CCNC2=O (centres unmarked) [WH-10417-099]
IRAK1: ternary complex formation with CRBN versus degradation [11]: complex formation does not predict degradation | cellular permeability / CRBN engagement (CRBN): able to permeate the cell membrane and bind to the CRBN E3 ligase | STK4 degradation rescue on p97 inhibition [12]: very little degradation rescue | targets with significantly different degrader efficacy in the different cell lines with no obvious difference in protein expression ([2]; MOLT-4, KELLY, HEK293T): GSK3B | kinases the bifunctional compound degrades ([2]; as stated for the structure in the embodiments): CDK14, CSNK1A1, CSNK1D, CSNK1E, GSK3A, GSK3B, LIMK2, MAP3K1, MINK1, NUAK1, PAK4, PIM2, STK10, STK17B, STK35, and STK4 | Kinase hits ([2]; kinases significantly downregulated vs DMSO (fold change cutoff −1.25, P-value<0.01), ≤8 h, 0.1-5 μM degrader, 7 cell lines): CDK14, CSNK1A1, CSNK1D, CSNK1E, GSK3A, GSK3B, LIMK2, MAP3K1, MINK1, NUAK1, PAK4, PIM2, STK10, STKI7B, STK35, STK4 | Total no. kinase hits ([2]; number of degraded kinases per library compound): 13
